Laboratory results taken from PMC8424217 (The Journal of Biological Chemistry, 2021).
Entries after “also recorded” stand apart in the source; their conditions may differ. Peptide text beside a SMILES is read from it. * marks the point of attachment. Palmitoyl = CCCCCCCCCCCCCCCC(=O)*

Assays:
Assay type in all cases: cell-based
CHO-K1 cells = test: IP1 production, IP-One terbium immunoassay, untransfected CHO-K1 cells; settings: CHO-K1, 40 min incubation
Procedure: This assay, performed with the IP-One terbium immunoassay kits from Cisbio, was used according to the manufacturer recommendation and as previously described ([43]). Briefly, CHO-hUT cells were grown in 10-cm dishes for 24 h. The cells were then starved without serum. The next day, cells were washed once with PBS and collected in PBS containing 20 mM EDTA. For the assay, 80,000 cells per well (96-well plate) were used. […] IP1-d2 and anti-IP1-cryptate were added for an additional 2 h at room temperature. Plates were read on a Flexstation 3 microplate reader.
[Trp1, Leu2]hUT-Pep3. IP1 production was evaluated using the IP-One terbium immunoassay
kitsinCHO-K1 cells.Each histogram represents the mean ± SEM of atleast threeindependent
experiments performed in triplicate.
(also on this page, place not known: (% Maximal Response) FigureS3.IP1productioninCHO-K1cellsfollowingtreatmentbyhUII,hUT-Pep2or [Trp1,Leu2]hUT-Pep3.IP1productionwasevaluatedusingtheIP-Oneterbiumimmunoassay kitsinCHO-K1cells.Eachhistogramrepresentsthemean±SEMofatleastthreeindependent experimentsperformedintriplicate.)

hUT [1] = molecular target: T1, hUT (Homo sapiens, UniProt Q9UKP6); test: ERK1/2 phosphorylation, BRET-based biosensor, HEK 293-hUT cells; set-up: expressed in transfected cells; settings: concentration-response
T1 sequence (Q9UKP6 1-389): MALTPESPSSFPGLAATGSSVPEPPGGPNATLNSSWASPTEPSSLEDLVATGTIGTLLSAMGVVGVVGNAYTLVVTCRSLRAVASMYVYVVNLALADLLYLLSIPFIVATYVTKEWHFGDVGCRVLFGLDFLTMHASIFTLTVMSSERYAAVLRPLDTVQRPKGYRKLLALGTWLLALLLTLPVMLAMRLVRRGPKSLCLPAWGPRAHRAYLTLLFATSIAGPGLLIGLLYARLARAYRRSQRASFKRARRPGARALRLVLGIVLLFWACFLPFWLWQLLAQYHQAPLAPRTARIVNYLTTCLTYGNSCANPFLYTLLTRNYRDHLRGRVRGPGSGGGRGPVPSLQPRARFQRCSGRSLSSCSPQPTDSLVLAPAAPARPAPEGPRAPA
Procedure: HEK 293-hUT cells were grown in DMEM culture media supplemented with 10% foetal bovine serum, HEPES, sodium pyruvate, and G418 (200 μg mL^−1). Passages were performed when cells reached 80% of confluency. Cells were initially plated in 96-well plates at a density of 10,000 cells/well. The following day, the medium is replaced with DMEM culture media supplemented with 2.5% foetal bovine serum (FBS), and 12 h later, cells were transiently transfected with 25 ng/well of a Gq-polycistronic, 25 ng/well of a G12-polycistronic BRET sensor, 25 ng/well of a G13-polycistronic BRET sensor, 2.5 ng/well pIRESB RLucII-ERK-NLS-GFP BRET sensor, 2.5 ng β-arrestin 1-polycistronic BRET sensor, or 2.5 ng β-arrestin 2-polycistronic BRET sensor using Lipofectamine2000 at a ratio of 3:1 (Lipofectamine/plasmid DNA) in serum-free Opti-MEM ([44], [81]). […] Then, to evaluate Gq and G12 activation, 10 μl of a 1/20 dilution (diluted before use) of coelenterazine 400A (stock at 1 mM in ethanol) in Kreb's buffer and 10 μl of the 10× appropriate concentration of peptide were added, and the luminescence was evaluated with an Infinite M1000 PRO. […] Readings were performed after 5 min using an Infinite M1000 PRO. […] BRET ratio was determined by calculating the ratio of the light emitted by GFP10 over the light emitted by the RlucII. […]

hUT [2] = molecular target: T1, hUT; test: Antagonism of hUII- or URP-mediated G12 activation, BRET, HEK 293-hUT cells; set-up: expressed in transfected cells; settings: pepducin 10^−5 M for 15 min, then hUII or URP, at least three experiments in triplicate
Procedure: Figure 10 Effect of hUT-pepducins on hUT-mediated G12activation. […] Each curve represents mean ± SEM of at least three independent concentration–response experiments performed in triplicate.
HEK 293-hUT cells were grown in DMEM culture media supplemented with 10% foetal bovine serum, HEPES, sodium pyruvate, and G418 (200 μg mL^−1). Passages were performed when cells reached 80% of confluency. Cells were initially plated in 96-well plates at a density of 10,000 cells/well. […] Then, to evaluate Gq and G12 activation, 10 μl of a 1/20 dilution (diluted before use) of coelenterazine 400A (stock at 1 mM in ethanol) in Kreb's buffer and 10 μl of the 10× appropriate concentration of peptide were added, and the luminescence was evaluated with an Infinite M1000 PRO. […] Readings were performed after 5 min using an Infinite M1000 PRO. […] BRET ratio was determined by calculating the ratio of the light emitted by GFP10 over the light emitted by the RlucII.

Structure (SMILES)	IP1 production in untransfected CHO-K1 cells (CHO-K1 cells)	ERK1/2 phosphorylation (BRET) versus hUII (hUT [1])	hUII- and URP-mediated G12 activation after pepducin pretreatment (hUT [2])
CCCCCCCCCCCCCCCC(=O)N[C@@H](Cc1c[nH]c2ccccc12)C(=O)N[C@@H](CC(C)C)C(=O)N[C@@H](CO)C(=O)N[C@@H](CCC(N)=O)C(=O)N[C@@H](CCCNC(=N)N)C(=O)N[C@@H](C)C(=O)N[C@@H](CO)C(=O)N[C@@H](Cc1ccccc1)C(=O)N[C@@H](CCCCN)C(=O)N[C@@H](CCCNC(=N)N)C(=O)N[C@@H](C)C(=O)N[C@@H](CCCNC(=N)N)C(=O)N[C@@H](CCCNC(=N)N)C(N)=O [[Trp^1, Leu^2]hUT-Pep3] (Palmitoyl-WLSQRASFKRARR-NH2)	not untransfected CHO-K1 cells	lower potency and efficacy than hUII	completely abolished hUII- and URP-associated G12 stimulation
CCCCCCCCCCCCCCCC(=O)N[C@@H](CCCNC(=N)N)C(=O)N1CCC[C@H]1C(=O)N[C@@H](CC(C)C)C(=O)N[C@@H](CC(=O)O)C(=O)N[C@H](C(=O)N[C@H](C(=O)N[C@@H](CCC(N)=O)C(=O)N[C@@H](CCCNC(=N)N)C(=O)N1CCC[C@H]1C(=O)N[C@@H](CCCCN)C(=O)NCC(=O)N[C@@H](Cc1ccc(O)cc1)C(N)=O)C(C)C)[C@@H](C)O [hUT-Pep2] (Palmitoyl-RPLDTVQRPKGY-NH2)	not untransfected CHO-K1 cells	lower potency and efficacy than hUII; also recorded: partial agonist	completely abolished hUII- and URP-associated G12 stimulation
